Measurements from PMC7352759, “S(+)-(2E)-N-(2-Hydroxypropyl)-3-Phenylprop-2-Enamide (KM-568): A Novel Cinnamamide Derivative with Anticonvulsant Activity in Animal Models of Seizures and Epilepsy” (International Journal of Molecular Sciences, 2020).
Read-outs that look alike come from different tables or passages of the source.

Key:
[1] = Neurotoxicity (TOX), rotarod test, mice; assay type: in vivo; settings: mouse, in vivo, rotarod, 0.25 h, 95% confidence interval in parentheses
Protocol: (§1) In mice, the neurological deficit was measured by the rotarod test in which a 1 inch diameter knurled plastic rod rotating at 6 rpm was used. Tests were performed at 0.25 h or 0.5 h of intraperitoneal or oral administration of the certain dose of the compounds KM-568. Each mouse was placed on the rod. If the animal was not able to remain on the rod for at least 1 min in each of three trials, the neurotoxicity was scored. In rats, the neurological deficit was measured in behavioral tests and scored when ataxia and loss of placing response and muscle tone were observed. Tests in rats were performed after 0.5 h of intraperitoneal administration or 1.0 h of oral administration of the certain dose of compound KM-568. TD50s were calculated by probit analysis.

mice [2] = assay: Neurotoxicity (TOX), rotarod test, mice; assay type: in vivo
Protocol: as §1

mice [3] = assay: 6-Hz psychomotor seizure model (32 mA, 44 mA); assay type: in vivo; settings: for ED50: Mus musculus, ip, 95% confidence interval in parentheses; for 6-Hz (32 mA) Results (protected/tested animals) / 6-Hz (44 mA) Results (protected/tested animals): i.p.
Protocol: The test was performed after 0.25 h (for 32 mA current) or 0.5 h (for 44 mA current) of i.p. administration of compound KM-568. The groups of 8 animals were challenged for a single dose of the tested compounds. In addition, 0.2 ms pulses of electric current at 6 Hz and 32 mA or 44 mA were delivered for 3 sec via corneal electrodes. The mouse was released into an observation cage immediately after stimulation. The electric stimulation in a 6-Hz test causes a minimal clonic phase followed by stereotyped, automatic behaviors. The seizure activity can be described as stun, forelimb clonus, twitching of the vibrissae, and Straub tail. The protection was scored if the mouse resumed its normal activity within 10 sec from the stimulation.

CF-1 mice [4] = assay: Chemoconvulsant test, bicuculine; assay type: in vivo; settings: 0.25 h
Protocol: Initially, compound KM-568 was administered i.p. at 130.0 mg/kg in two groups of CF-1 mice (n = 8). After 0.25 h, the subcutaneous injections of either bicuculine (2.7 mg/kg) or picrotoxin (2.5 mg/kg) were performed. The, animals were placed in isolation cages and observed for 30 min (in a bicuculine assay) or 45 min (in a picrotoxin assay) for the presence or absence of an episode of a clonic seizure.

CF-1 mice [5] = assay: Chemoconvulsant test, picrotoxin; assay type: in vivo; settings: 0.25 h; for Picrotoxin Results (protected/tested animals): i.p.
Protocol: After 0.25 h, the subcutaneous injections of either bicuculine (2.7 mg/kg) or picrotoxin (2.5 mg/kg) were performed. The, animals were placed in isolation cages and observed for 30 min (in a bicuculine assay) or 45 min (in a picrotoxin assay) for the presence or absence of an episode of a clonic seizure.

C57/Bl6 mice = assay: Mesial temporal lobe epilepsy model (MTLE); assay type: in vivo; settings: 114 mg/kg i.p., recording period 20–40 min
Protocol: Adult male C57/Bl6 mice were placed in a stereotactic frame, injected with kainate (1 nmol/100 nL) and implanted with 1 bipolar electrode in the dorsal hippocampus. The animals were then allowed to recover for four weeks. Four animals chosen for tests were intraperitoneally injected with KM-568 at 114 mg/kg (ED50 obtained in 6-Hz 44 mA test). Digital EEG recordings were performed on freely moving animals for 20 min pre-injection (reference period) and from 20 to 40 min after injection (10 min before and 10 min after peak time of effect in a 6-Hz 44 mA test). Animals are used as their own controls. In the testing periods, spontaneous recurrent hippocampal paroxysmal discharges (HPD) were counted.

[6] = In vitro metabolism, mouse liver microsomes; assay type: in vitro ADME
Protocol: Stock solution of KM-568 was prepared in methanol. Mouse liver microsomes (Sigma–Aldrich, Darmstadt, Germany) were carefully thawed on ice before the experiment. A compound tested at concentration 20 μM was preincubated with mouse liver microsomes (0.4 mg/mL) in 100 mM potassium-phosphate buffer (pH 7.4) for 15 min at 37 °C. The biotransformation reaction was started with the addition of NADPH-regenerating system (NADP^+, glucose-6-phosphate, 0.7 U/mL glucose-6-phosphate dehydrogenase in 100 mM potassium-phosphate buffer) (Sigma–Aldrich, Darmstadt, Germany) and the mixture was incubated at 37 °C. Experiments were carried out 30 and 60 min at 37 °C, in duplicates. Negative control without NADPH-regenerating system was also conducted. Biotransformation was stopped by adding cooled 70% perchloric acid. Next, an internal standard (pentoxifylline) was added and samples were centrifuged at 9000 rpm for 10 min at 4 °C. The supernatant was analyzed by means of LC/MS. In vitro half time (t1/2) was established from the slope of the compound depletion curve. Intrinsic clearance (Clint) was obtained from the equation Clint = (volume of incubation [µl]/protein in the incubation [mg]) × 0.693/t1/2 [58, 59].

With `C[C@H](O)CNC(=O)/C=C/c1ccccc1` [KM-568, S(+)-(2E)-N-(2-hydroxypropyl)-3-phenylprop-2-enamide] the TD50 at 0.25 h ([1]; ip) was 148 mg/kg, the TD50 at 0.25 h ([1]; po) was 344 mg/kg and the “TOX Results (animals displaying neurotoxicity/animals used)” value (mice [2]; i.p., 100 mg/kg, 0.25 h) was 0/8. The “TOX Results (animals displaying neurotoxicity/animals used)” value (mice [2]; i.p., 125 mg/kg, 0.25 h) was 0/8, the “TOX Results (animals displaying neurotoxicity/animals used)” value (mice [2]; i.p., 138 mg/kg, 0.25 h) was 2/8 and the “TOX Results (animals displaying neurotoxicity/animals used)” value (mice [2]; i.p., 150 mg/kg, 0.25 h) was 5/8. The “TOX Results (animals displaying neurotoxicity/animals used)” value (mice [2]; i.p., 170 mg/kg, 0.25 h) was 7/8, the “TOX Results (animals displaying neurotoxicity/animals used)” value (mice [2]; i.p., 200 mg/kg, 0.25 h) was 8/8 and the “TOX Results (animals displaying neurotoxicity/animals used)” value (mice [2]; p.o., 200 mg/kg) was 0/8. For the same compound, the “TOX Results (animals displaying neurotoxicity/animals used)” value (mice [2]; p.o., 300 mg/kg) was 3/8, the “TOX Results (animals displaying neurotoxicity/animals used)” value (mice [2]; p.o., 350 mg/kg) was 5/8 and the “TOX Results (animals displaying neurotoxicity/animals used)” value (mice [2]; p.o., 400 mg/kg) was 5/8. For the same compound, the “TOX Results (animals displaying neurotoxicity/animals used)” value (mice [2]; p.o., 500 mg/kg) was 7/8, the ED50 (mice [3]; 32 mA, 0.25 h, read-out: 6-Hz (32 mA) ED50) was 71.5 mg/kg and the ED50 (mice [3]; 44 mA, 0.5 h, read-out: 6-Hz (44 mA) ED50) was 114 mg/kg. The “6-Hz (32 mA) Results (protected/tested animals)” value (mice [3]; 50 mg/kg, 0.25 h) was 1/8, the “6-Hz (44 mA) Results (protected/tested animals)” value (mice [3]; 50 mg/kg, 0.5 h) was 0/8 and the “6-Hz (32 mA) Results (protected/tested animals)” value (mice [3]; 75 mg/kg, 0.25 h) was 3/8. For the same compound, the “6-Hz (32 mA) Results (protected/tested animals)” value (mice [3]; 87 mg/kg, 0.25 h) was 7/8, the “6-Hz (44 mA) Results (protected/tested animals)” value (mice [3]; 100 mg/kg, 0.5 h) was 3/8 and the “6-Hz (32 mA) Results (protected/tested animals)” value (mice [3]; 110 mg/kg, 0.25 h) was 8/8. For the same compound, the “6-Hz (44 mA) Results (protected/tested animals)” value (mice [3]; 150 mg/kg, 0.5 h) was 6/8, the “6-Hz (44 mA) Results (protected/tested animals)” value (mice [3]; 200 mg/kg, 0.5 h) was 8/8 and the ED50 (CF-1 mice [4]; Mus musculus, ip) was over 130 mg/kg. The “Bicuculine Results (protected/tested animals)” value (CF-1 mice [4]; i.p., 130 mg/kg) was 0/8, the ED50 (CF-1 mice [5]; Mus musculus, ip, 95% confidence interval in parentheses) was 94.1 mg/kg and the “Picrotoxin Results (protected/tested animals)” value (CF-1 mice [5]; 70 mg/kg) was 1/8. The “Picrotoxin Results (protected/tested animals)” value (CF-1 mice [5]; 100 mg/kg) was 5/8, the “Picrotoxin Results (protected/tested animals)” value (CF-1 mice [5]; 130 mg/kg) was 7/8 and the “Effect (% of Baseline), HPD counts” value (C57/Bl6 mice) was 73.9 % of Baseline. The “Mean HPD Counts” value (C57/Bl6 mice) was 12.8, the compound remained unchanged ([6]; after 60 min of incubation with microsomes) was 72.37% and the metabolic stability qualification ([6]; mouse liver microsomes) was “moderate metabolically stable”. It also gave a half-life at 20 μM ([6]; pH 7.4, mouse liver microsomes, 20 μM, read-out: half-life time (t1/2)) of 2.14 h and a microsomal CLint at 20 μM ([6]; pH 7.4, mouse liver microsomes, 20 μM, read-out: internal clearance (Clint)) of 13.5 µL/min/mg.
